Test results: publication PMC3513970 (Oncogene, 2011)
Several values for one entry are separate records, joined by “and”; a condition that tells them apart may be missing. Equal values may be shown once.

Legend:
recombinant WT ezrin = recombinant WT ezrin (Mus musculus, UniProt P26040); test: SPR direct binding to immobilized recombinant WT ezrin
[1] = target: PKCΙ phosphorylation of moesin (Homo sapiens, UniProt P26038); test: In vitro kinase assay: PKCΙ phosphorylation of moesin; format: biochemical; settings: read-out: IC50, PKCΙ phosphorylation of moesin
PKCΙ phosphorylation of moesin, sequence (P26038 whole entry): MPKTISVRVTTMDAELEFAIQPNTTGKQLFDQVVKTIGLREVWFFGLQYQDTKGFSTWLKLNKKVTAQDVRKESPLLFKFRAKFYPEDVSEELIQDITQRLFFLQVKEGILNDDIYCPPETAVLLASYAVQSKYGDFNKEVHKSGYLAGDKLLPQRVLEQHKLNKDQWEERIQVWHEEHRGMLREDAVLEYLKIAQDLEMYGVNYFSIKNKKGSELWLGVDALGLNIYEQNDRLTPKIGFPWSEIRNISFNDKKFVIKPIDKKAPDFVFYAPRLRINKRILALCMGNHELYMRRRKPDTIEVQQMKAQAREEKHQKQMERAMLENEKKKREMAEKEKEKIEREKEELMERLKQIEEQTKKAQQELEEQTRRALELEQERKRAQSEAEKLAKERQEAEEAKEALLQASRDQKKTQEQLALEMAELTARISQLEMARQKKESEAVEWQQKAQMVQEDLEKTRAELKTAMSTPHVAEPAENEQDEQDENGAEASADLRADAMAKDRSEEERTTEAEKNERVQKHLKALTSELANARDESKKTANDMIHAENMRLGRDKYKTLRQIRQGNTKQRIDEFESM

[2] = target: endogenous ezrin in K7M2 OS cells (Mus musculus, UniProt P26040); test: Immunoprecipitation/immunoblotting of endogenous ezrin in K7M2 cells; format: cell-based, murine; settings: 10 μM, 6 h
endogenous ezrin in K7M2 OS cells, sequence (P26040 whole entry): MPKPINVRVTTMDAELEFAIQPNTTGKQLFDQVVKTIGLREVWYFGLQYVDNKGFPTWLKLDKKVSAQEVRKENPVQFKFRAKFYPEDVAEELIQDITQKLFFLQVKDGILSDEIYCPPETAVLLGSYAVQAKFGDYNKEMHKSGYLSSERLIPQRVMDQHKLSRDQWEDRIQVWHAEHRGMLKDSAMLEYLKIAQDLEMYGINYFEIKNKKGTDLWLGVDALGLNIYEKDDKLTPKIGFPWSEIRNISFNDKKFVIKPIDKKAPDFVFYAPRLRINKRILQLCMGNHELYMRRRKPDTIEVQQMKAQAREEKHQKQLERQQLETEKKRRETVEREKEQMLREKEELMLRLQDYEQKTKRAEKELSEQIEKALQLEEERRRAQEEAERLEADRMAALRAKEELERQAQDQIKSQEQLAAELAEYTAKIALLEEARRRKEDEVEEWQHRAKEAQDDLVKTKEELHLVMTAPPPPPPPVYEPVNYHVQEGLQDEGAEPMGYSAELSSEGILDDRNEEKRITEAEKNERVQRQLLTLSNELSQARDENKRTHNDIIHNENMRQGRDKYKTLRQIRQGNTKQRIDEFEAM

K12 cells = test: Invasion of HUVEC monolayer by K12 cells; format: cell-based, murine; settings: 10 μM
[3] = tested on: MNNG-HOS lung metastasis in SCID/Beige mice; test: In vivo experimental lung metastasis model, MNNG-HOS cells; design: species or system mouse
zebrafish embryos = test: Zebrafish embryo development assay
[4] = tested on: K7M2 lung metastasis in BALB/c mice; test: In vivo experimental lung metastasis model, K7M2 cells; design: species or system mouse
PKCΙ, α and γ = test: Radioactive in vitro kinase profiling of PKC isoforms on non-specific substrate; format: biochemical; settings: myelin basic protein substrate; maximum 100 μM
[5] = mouse
actin = test: SPR binding to actin; settings: read-out: KD for binding to actin; negative control; data not shown
K7M2 cells [6] = test: Invasion of HUVEC monolayer by K7M2 cells; format: cell-based, murine; settings: 10 μM, 5 h, vs DMSO (1%)
[7] = tested on: K7M2 cells, K12 cells or HUVECs; test: Cell viability assays; format: cell-based; settings: 10 μM; K7M2, K12, HUVEC; data not shown
K7M2 cells [8] = test: Cell migration assay for synergy; format: cell-based, murine; settings: combination of NSC305787 and NSC668394
[9] = tested on: GFP-expressing K7M2 OS cells in lung slices; test: Ex vivo mouse lung organ culture; format: cell-based; settings: 10 μM, vs DMSO 1%
Xenopus embryos = test: Xenopus embryo development assay; format: in vivo
PKCΙ = target: T1, PKCΙ (Homo sapiens, UniProt P41743); test: Biacore direct interaction with PKCΙ; settings: read-out: KD for binding to PKCΙ, data not shown
T1 sequence (P41743 1-596): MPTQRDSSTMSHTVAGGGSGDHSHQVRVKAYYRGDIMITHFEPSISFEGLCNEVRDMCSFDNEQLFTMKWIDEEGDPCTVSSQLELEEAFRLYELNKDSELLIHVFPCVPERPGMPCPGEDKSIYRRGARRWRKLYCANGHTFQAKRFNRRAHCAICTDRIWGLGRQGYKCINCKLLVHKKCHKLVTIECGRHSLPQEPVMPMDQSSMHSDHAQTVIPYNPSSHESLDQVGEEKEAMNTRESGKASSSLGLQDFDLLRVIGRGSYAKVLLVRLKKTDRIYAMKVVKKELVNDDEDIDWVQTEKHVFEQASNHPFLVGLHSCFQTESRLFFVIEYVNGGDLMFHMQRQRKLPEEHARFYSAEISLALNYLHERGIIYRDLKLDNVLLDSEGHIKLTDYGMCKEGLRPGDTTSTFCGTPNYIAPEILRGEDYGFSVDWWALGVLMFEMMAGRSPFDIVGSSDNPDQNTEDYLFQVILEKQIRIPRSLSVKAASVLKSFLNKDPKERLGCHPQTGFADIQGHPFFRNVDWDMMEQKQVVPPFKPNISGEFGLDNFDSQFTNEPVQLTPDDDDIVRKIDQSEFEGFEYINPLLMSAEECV

[10] = target: PKCΙ phosphorylation of radixin (Homo sapiens, UniProt P35241); test: In vitro kinase assay: PKCΙ phosphorylation of radixin; format: biochemical; settings: read-out: IC50, PKCΙ phosphorylation of radixin
PKCΙ phosphorylation of radixin, sequence (P35241 whole entry): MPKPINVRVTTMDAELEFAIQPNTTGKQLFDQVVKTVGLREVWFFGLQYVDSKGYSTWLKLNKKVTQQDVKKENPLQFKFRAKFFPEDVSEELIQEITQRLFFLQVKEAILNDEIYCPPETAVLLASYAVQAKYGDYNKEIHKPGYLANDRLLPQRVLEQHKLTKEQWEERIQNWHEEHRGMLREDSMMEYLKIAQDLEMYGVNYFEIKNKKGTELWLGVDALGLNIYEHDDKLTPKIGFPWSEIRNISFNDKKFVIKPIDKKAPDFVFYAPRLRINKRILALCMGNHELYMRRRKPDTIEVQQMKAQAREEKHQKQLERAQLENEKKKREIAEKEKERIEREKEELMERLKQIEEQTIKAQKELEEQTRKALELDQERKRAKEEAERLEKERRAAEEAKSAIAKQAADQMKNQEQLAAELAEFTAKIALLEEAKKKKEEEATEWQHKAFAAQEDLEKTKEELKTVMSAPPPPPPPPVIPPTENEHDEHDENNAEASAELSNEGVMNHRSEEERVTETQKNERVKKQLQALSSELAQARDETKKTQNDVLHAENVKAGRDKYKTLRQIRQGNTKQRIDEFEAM

recombinant WT ezrin, sequence (P26040 whole entry): as the sequence (P26040 whole entry) above

## OC(c1cc(C23CC4CC(CC(C4)C2)C3)nc2c(Cl)cc(Cl)cc12)C1CCCCN1 (centres unmarked) [NSC305787]
Recombinant WT ezrin; comparison of the two compounds
  binding kinetics on ezrin: bound to and dissociated faster from ezrin than NSC668394
Recombinant WT ezrin; read-out: KD for binding to ezrin, average of five independent experiments
  Kd: 5.85 µM and ~10 µM
[1]
  IC50: 9.4 µM
[2]
  T567 phosphorylation of endogenous ezrin: inhibited
  actin binding of endogenous ezrin: inhibited
  cellular ezrin levels: without altering cellular ezrin levels
K12 cells
  invasion by K12 cells on HUVEC monolayer: no effect on invasion
[3]; MNNG-HOS tail vein, vehicle 50.5 days
  median survival: 49 days
[3]; MNNG-HOS-injected mice
  number of GFP-expressing metastatic foci in lung tissues: no differences
  survival, control vs treatment groups: no difference in survival
Zebrafish embryos; 10 μM
  zebrafish embryo phenotype: mimicked the ezrin MO phenotype
Zebrafish embryos; 10 μM, 12 of 81 embryos
  embryos with epiboly defects: 15%
Zebrafish embryos; 20 μM, 71 of 71 embryos
  embryos with epiboly defects: 100%
[4]; K7M2-injected mice
  number of GFP-expressing metastatic foci in lung tissues: significant decrease
[4]; K7M2, log-rank, P = 0.0337 (NSC305787), P = 0.0524 (NSC668394)
  overall survival vs vehicle group: significantly different from that of the vehicle-treated group
[4]; treated vs control (DMSO) animals
  phospho-ezrin levels in lung–liver–kidney–spleen–skin samples: did not observe any meaningful differences
PKCΙ, α and γ
  inhibition of PKC activity (PKCΙ, α and γ): required higher concentration than that required to inhibit ezrin phosphorylation
[5]
  in vivo tolerability: very well tolerated in vivo without any obvious acute toxicity
actin
  Kd: 91.4 µM
K7M2 cells [6]
  invasion by K7M2 cells on HUVEC monolayer: inhibited invasion
[7]
  cytotoxicity: Neither compound was cytotoxic
K7M2 cells [8]
  synergy between both compounds in cellular migration: do not show any synergy
[9]
  lung metastases growth of K7M2 cells in organ culture (GFP fluorescence): significantly inhibited
Xenopus embryos; 10 μM
  Xenopus embryo phenotype at stage 12.5: gastrulation defects
  Xenopus embryo phenotype by stage 37: delays in development and ventral defects
  Xenopus embryo phenotype by stage 50: short and bent tails and reduced eyes
Xenopus embryos; 40 μM
  Xenopus embryo phenotype at high concentration: severe gastrulation defects and embryonic death
PKCΙ
  Kd: 172 µM
[10]
  IC50: 55 µM
